# Entries after “also recorded” stand apart in the source; their conditions may differ. Where two headings read alike, the source gives them in different places.
# Legend:
# [1] = test system: cortical neurons from E18 rat embryos; settings: pre-treatment with inhibitor
# Protocol: FIG. 23. […] Cortical neurons from E18 rat embryos were cultured onto 96-well plates (A) or glass coverslips in 6-well plates (B). On 10-14 DIV, the neurons were pre-treated with MEK1/ERK1/2 inhibitors U0126 or SL327. Oxidative stress was induced by hydrogen peroxide or menadione. Cell viability was measured with MTT survival assay (A) or live/dead assay (B). C) % death was calculated from the number of dead (red) and live (green) cells.
# C6 glioma cells = assay: Cyclophosphamide cytotoxicity by LDH release in C6 glioma cells; type: cell-based, rat
# Protocol: (§4) Primary mixed glial cells were obtained from the cerebral cortex of 1 to 3 day old Sprague Dawley rat pups (Charles River) as described before. Cells cultured for 10-14 days in DMEM/F12 medium with 10% fetal bovine serum (FBS) were used in assays. C6, A10-85, 9L and RG2 rat glioma cell lines and LN229 human glioma cell line and SH-SY5Y human neuroblastoma cell line were maintained in DMEM/F12 medium with 10% FBS at 37° C. under 5% CO2.
# (§5) Cells were seeded into 96-well microliter plates at 20,000-30,000 cells/well and incubated for 2 days. Cells were washed with phosphate buffered saline (PBS) prior to treatments as indicated in the text. All treatments were performed at 37° C. under 5% CO2.
# Glucose restriction was done by incubating cells in glucose free DMEM (Invitrogen) supplemented with either low glucose (0.5 gL) or normal glucose (1.0 gL) for 24 hours. Serum restriction was done by incubating cells in DMEMIF12 with either 10% or 1% FBS for 24 hours. IGF-I treatment was carried out by incubating cells for 48 hours in DMEM/F12 with 1% FBS and rhIGF-I (100 n g/ml, ProSpec-Tany TechnoGene, Rehovot, Israel), which is shown to be within the IGF-I level range for middle age humans. To antagonize IGF-I receptor activity, cells were incubated with neutralizing monoclonal anti-IGF-IR antibody (aIR3, 1 pg/ml; Calbiochem) in DMEM/F12 1% FBS for 24 hours.
# (§6) Cytotoxicity was measured by either LDH release using the CytoTox 96 Non-Radioactive Cytotoxicity Assay kit (Promega) or the ability to reduce methylthiazolyldiphenyltetrazolium bromide (MTT). % LDH release was determined with reference to the maximum and background LDH release of control cells. […]
# Cyclophosphamide (CP, Sigma) was used for in vitro chemotherapy studies. […] Cytotoxicity was measured by either lactate dehydrogenase released using the CytoTox 96 Non-Radioactive Cytotoxicity Assay kit (Promega) or the ability to reduce methylthiazolyldiphenyl-tetrazolium bromide (MTT). LDH released into the medium by lysed cells were measured with a 10-minute enzymatic assay that converts a tetrazolium salt (INT) into a red formazan product.
# [2] = test system: primary rat cortical neurons; assay: IGF-I and paraquat oxidative toxicity, MTT, cortical neurons; type: cell-based; settings: 100 ng/ml IGF-I 24 hr, 100 μM paraquat
# Protocol: (§1) FIG. 12. […] Primary rat cortical neurons or PC12 cells incubated in 1% serum and 4 g/L glucose were treated for 24 hr with vehicle, 100 μM of paraquat, 100 ng/ml of IGF-I followed by 100 μM of paraquat, or 100 ng/ml of IGF-1 alone and were then subjected to MTT reduction activity assay to assess cell viability. Data from 4 independent experiments are normalized to control and expressed as the mean±S.E.M.
# Primary neurons from embryonic day 18 Sprague-Dawley rat cerebral cortices were dissociated in neurobasal medium (Invitrogen) supplemented with 0.5 mM L-glutamine, 25 μM L-glutamic acid and 2% B-27 and plated at 640 cells/mm^2 in 96-well plates which were pre-coated with 10 microg/ml poly-D-lysine dissolved in Borax buffer (0.15 M, pH 8.4). Neurons were maintained at 37° C. in 5% CO2 in neurobasal medium supplemented with B-27 and 0.5 mM L-glutamine for 4 days.
# Primary rat neurons and PC12 cells were treated with IGF-1 and paraquat to determine the effect of IGF-1 on oxidative stress. Cortical neurons were treated for 24 hours in Eagle's minimal essential medium (Invitrogen) supplemented with 21 mM glucose and 1% horse serum. PC12 cells were plated at 5×10^4 cells/well onto poly-D-lysine coated. 96-well plates and were grown for 24 hours in F12K 1% HS. […] Survival was determined by the MTT assay and presented as percent ratio of treated to control.
# PC12 cells = assay: IGF-I and paraquat oxidative toxicity, MTT, PC12 cells; type: cell-based, rat; settings: 100 ng/ml IGF-I 24 hr, 100 μM paraquat
# Protocol: as §1
# Primary rat neurons and PC12 cells were treated with IGF-1 and paraquat to determine the effect of IGF-1 on oxidative stress. Cortical neurons were treated for 24 hours in Eagle's minimal essential medium (Invitrogen) supplemented with 21 mM glucose and 1% horse serum. PC12 cells were plated at 5×10^4 cells/well onto poly-D-lysine coated. 96-well plates and were grown for 24 hours in F12K 1% HS. Both types of cells were then treated with either 100 μM of paraquat, IGF-1 (100 ng/ml) followed 30 minutes later by paraquat (100 μM) or IGF-1 (100 ng/ml) alone in appropriate media. Survival was determined by the MTT assay and presented as percent ratio of treated to control.
# [3] = test system: sch9/aktΔRAS2^val19 cells; assay: Yeast viability (CFU) in mixed cultures, chronic MMS treatment, RAS2val19-expressing cells; type: cell-based, S. cerevisiae; settings: 48-hour treatment, 0.01% MMS
# Protocol: (§2) Overnight cultures were diluted to OD600 0.1 into SDC medium. After 24 hours (day I), the appropriate strains were mixed 1:1 based on OD600 and incubated for 2 hours. The mixed cultures were then treated with either cyclophosphamide (CP, 0.1 M) or […] (MMS, 0.01%, Sigma) in medium or water (STS). For treatment SDC, MMS was introduced directly into the mixed culture to a final concentration of 0.01%. However, due to the high concentration of CP (0.1 M) used, CP was dissolved directly into the medium. To do so, mixed cultures were centrifuged for 5 minutes at 2,500 rpm and the media was collected, in which CP was dissolved to a concentration of 0.1 M. The mixed culture was then resuspended in the CP-containing medium. […] Viability was measured by quantifying colony-forming units (CFUs) every 24 hours by plating onto appropriate selective media. Viability of individual strains was measured using the same method as for the mixed cultures.
# (§3) Overnight SDC cultures were diluted to OD600 0.1 into fresh SDC medium. […] Viability was measured as colony-forming units (CFUs) every 24 hours by plating onto appropriate selective media. Viability of individual strains was measured using the same method as for the mixed cultures. Relative survival shown was determined by the percentage of the ratio between the treated and untreated (control) cells.
# sch9/aktΔ = assay: Yeast viability (CFU) in mixed cultures, chronic MMS treatment, sch9/aktΔ cells; type: cell-based, S. cerevisiae; settings: 48-hour treatment, 0.01% MMS, mixed culture
# Protocol: as §2, §3
# LID mice = settings: for mortality: 500 mg/kg cyclophosphamide i.p.
# Protocol: Thirty-four to forty-two-week old LID and their control L/L-mice were used to evaluate the role of circulating liver-derived IGF-I in stress resistance. LID and L/L-mice were generated using the Cre/loxP system as described before. […] All mice were individually caged throughout the experiment and had access to food and water ad libitum. Both LID and L/L-mice were each injected 500 mg/kg of cyclophosphamide i.p. using 29G insulin syringes. Cyclophosphamide was prepared in saline at 40 mg/ml and warmed prior to injection. Mice were routinely monitored for weight loss and signs of pain and stress. Survival time was the main criterion for determining the effect of low circulating IGF-I on the resistance to high-dose cyclophosphamide. The statistical significance of differential survival between experimental groups was determined by Kaplan-Meier curves and log-rank test using GraphPad Prism 4 software (San Diego, Calif.).
# [4] = test system: primary rat mixed glial cells; assay: Cyclophosphamide cytotoxicity by LDH release (serum restriction, IGF-I, aIR3) in primary glia; type: cell-based; settings: 15 mg/ml CP, 10% serum
# Protocol: as §4
# Cells were seeded into 96-well microliter plates at 20,000-30,000 cells/well and incubated for 2 days. Cells were washed with phosphate buffered saline (PBS) prior to treatments as indicated in the text. All treatments were performed at 37° C. under 5% CO2. […]
# as §6
# Cyclophosphamide (CP, Sigma) was used for in vitro chemotherapy studies. […] Cytotoxicity was measured by either lactate dehydrogenase released using the CytoTox 96 Non-Radioactive Cytotoxicity Assay kit (Promega) or the ability to reduce methylthiazolyldiphenyl-tetrazolium bromide (MTT). […]
# S. cerevisiae = type: cell-based; settings: 48-hour treatment with CP (0.1 M), strains treated separately
# Protocol: Overnight cultures were diluted to OD600 0.1 into SDC medium. After 24 hours (day I), the appropriate strains were mixed 1:1 based on OD600 and incubated for 2 hours. […] For treatment SDC, MMS was introduced directly into the mixed culture to a final concentration of 0.01%. However, due to the high concentration of CP (0.1 M) used, CP was dissolved directly into the medium. To do so, mixed cultures were centrifuged for 5 minutes at 2,500 rpm and the media was collected, in which CP was dissolved to a concentration of 0.1 M. The mixed culture was then resuspended in the CP-containing medium. For treatments in water (STS), mixed cultures were centrifuged for 5 minutes at 2,500 rpm and the media was replaced with either distilled/sterile water or drug-dissolved water. Viability was measured by quantifying colony-forming units (CFUs) every 24 hours by plating onto appropriate selective media. Viability of individual strains was measured using the same method as for the mixed cultures.
# [5] = test system: primary rat mixed glial cells
# Protocol: as §4, §5
# Glucose restriction was done by incubating cells in glucose free DMEM (Invitrogen) supplemented with either low glucose (0.5 gL) or normal glucose (1.0 gL) for 24 hours. Serum restriction was done by incubating cells in DMEMIF12 with either 10% or 1% FBS for 24 hours. […]
# as §6
# Cyclophosphamide (CP, Sigma) was used for in vitro chemotherapy studies. […] Cytotoxicity was measured by either lactate dehydrogenase released using the CytoTox 96 Non-Radioactive Cytotoxicity Assay kit (Promega) or the ability to reduce methylthiazolyldiphenyl-tetrazolium bromide (MTT). LDH released into the medium by lysed cells were measured with a 10-minute enzymatic assay that converts a tetrazolium salt (INT) into a red formazan product. A 96-well based colorimetric assay measured the amount of the red formazan formed, which is proportional to the number of dead cells. % LDH release was determined with reference to the maximum and background LDH release of control cells.
compound,measurement,setting,value
N#CC(=C(/N)Sc1ccccc1N)/C(C#N)=C(\N)Sc1ccccc1N [U0126],resistance of neurons to oxidative stress (hydrogen peroxide or menadione),[1],protects neurons against oxidative stress
"IGF-I: rhIGF-I (ProSpec-Tany TechnoGene), 100 ng/ml",increase in the toxicity of CP to C6 glioma cells,C6 glioma cells; 100 ng/ml IGF-I,minor increase; also recorded: did not increase
same,sensitization to oxidative toxicity,[2],sensitizes
same,sensitization to oxidative toxicity,PC12 cells,not in PC12 cells
"COS(C)(=O)=O [MMS, methyl methanesulfonate]",sch9/aktΔRAS2^val19 cells that survived,[3]; mixed culture (Example I),none
same,sch9/aktΔRAS2^val19 cells that survived,[3]; mixed culture (Example II),less than 5%
same,sch9/aktΔ cells that survived,sch9/aktΔ,great majority
"O=P1(N(CCCl)CCCl)NCCCO1 (stereo not drawn) [CP, cyclophosphamide]",average weight loss,"LID mice; LID mice, 500 mg/kg cyclophosphamide",10%
same,mortality,LID mice; LID mice,30%
same,weight loss,"LID mice; control mice, 500 mg/kg cyclophosphamide",20%
same,mortality,LID mice; control mice,70%
same,signs of toxicity in surviving mice,LID mice; surviving LID mice,did not show any signs of toxicity
same,toxicity to primary glial cells,[4],toxic
same,toxicity to C6 glioma cells in 10% serum versus 1% serum,C6 glioma cells; 15 mg/ml CP,as toxic
same,toxicity to RAS2^val19 and wild type cells,S. cerevisiae,toxic
same,glial cells resistant,"[5]; 12 mg/ml CP, 0.5 g/L glucose",80%
same,cells that survived,"[5]; 12 mg/ml CP, 1 g/L glucose",20%
same,differential stress resistance of mammalian cells by the starvation-response methods,[5]; normal vs cancer cells,less than 10 fold

# — patent US10821177B2, “Induction of differential stress resistance and uses thereof” (University of Southern California, priority 2007, dated 2020)
